Measured values taken from US7566737B2 (Genfit, priority 2002, dated 2009).

Legend:
[1] = system: hApoE2 Knock-in transgenic mice; experiment: Effects on triglycerides and cholesterol metabolism in vivo; parameters: species or system mouse
Procedure: Treatment of animals: hApoE2 knock-in transgenic mice were kept on a 12-hour light/dark cycle at a constant temperature of 20±3° C. After a 1 week acclimation, mice were separated in groups of 6 animals selected such that the distribution of their body weight and plasmatic lipid levels determined before the experiment were uniform. The test compounds were suspended in carboxymethylcellulose and administered by intragastric gavage at the indicated doses, once a day for 7 or 8 days. Animals had access to food and water ad libitum. At the end of the experiment the animals were weighed and sacrificed under anesthesia. Blood was collected on EDTA. Plasma was prepared by centrifugation at 3000 rpm for 20 minutes. Organs were harvested, frozen in liquid nitrogen and stored at −80° C. for subsequent analysis.
Measurement of serum lipids: Serum lipid concentrations (total cholesterol and triglycerides) were determined by a colorimetric assay (Boehringer, Mannheim, Germany) according to the supplier's instructions.

human PPARγ = target: T1, human PPARγ (Homo sapiens, UniProt P37231); experiment: PPARγ/Gal4 transactivation system; type: cell-based
T1 construct: expressed in transfected cells; host or cells: RK13 or COS-7
T1 sequence (P37231 238-503 limits assumed): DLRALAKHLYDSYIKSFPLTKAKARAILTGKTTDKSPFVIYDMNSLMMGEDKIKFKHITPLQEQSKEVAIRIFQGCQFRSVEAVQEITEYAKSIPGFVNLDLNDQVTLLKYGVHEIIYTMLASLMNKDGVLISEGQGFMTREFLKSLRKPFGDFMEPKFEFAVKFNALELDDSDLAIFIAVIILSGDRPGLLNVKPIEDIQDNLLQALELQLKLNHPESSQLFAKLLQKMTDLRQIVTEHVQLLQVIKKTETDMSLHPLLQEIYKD
Procedure: (§1) PPAR activation was tested in vitro in RK13 or COS-7 fibroblast cell lines by measuring the transcriptional activity of chimeras composed of the DNA binding domain of the yeast Gal4 transcription factor and the ligand binding domain of the different PPARs. These latter results were then confirmed in cell lines according to the following protocols.
(§2) Culture protocols: RK13 were from ECACC (Porton Down, UK) and were grown in DMEM medium supplemented with 10% (V/V) fetal calf serum, 100 U/ml penicillin (Gibco, Paisley, UK) and 2 mM L-glutamine (Gibco, Paisley, UK). COS-7 cells were from ATCC and were grown in DMEM medium supplemented with 10% (V/V) fetal calf serum, 1% penicillin/streptomycine (Biochrom, AG), 1% of amino acids (Gibco) and 1% sodium pyruvate (Gibco).
(§3) The culture medium was changed every two days. Cells were kept at 37° C. in a humidified 95% air/5% CO2 atmosphere.
(§4) Description of plasmids used for transfection: The plasmids Gal4(RE)_TkpGL3, pGal4-hPPARα, pGal4-hPPARγ, pGal4-hPPARδ and pGal4-φ have been described in the literature (Raspe E et al., 1999). The pGal4-hPPARα, pGal4-hPPARγ and pGal4-hPPARδ constructs were obtained by cloning into the pGal4-φ vector PCR-amplified DNA fragments corresponding to the DEF domains of the human PPARs nuclear receptors.
(§5) Transfection of RK13: RK13 cells were seeded in 24-well culture dishes at 5×10^4 cells/well and transfected for 2 hours with the reporter plasmid Gal4(RE)_TkpGL3 (50 ng/well), the expression vectors pGal4-φ, pGal4-hPPARα, pGal4-hPPARγ and pGal-hPPARδ (100 ng/well) and the transfection efficiency control vector pRL-CMV (1 ng/well) according to the previously described protocol (Raspe E, Madsen L, Lefebvre A M, Leitersdorf I, Gelman L, Peinado-Onsurbe J, Dallongeville J, Fruchart J C, Berge R and Staels B, 1999), then incubated for 36 hours with the test compounds. RK13 cells were incubated with the different compounds at concentrations of 10, 30 and 100 μM or 1, 10 and 100 μM for 24 hours. At the end of the experiment, the cells were lysed (Gibco, Paisley, UK) and luciferase activity was determined with a Dual-Luciferase™ Reporter Assay System kit (Promega, Madison, Wis., USA) according to the supplier's instructions. The protein content of the cell extracts was then measured with the Bio-Rad Protein Assay (Bio-Rad, Munich, Germany) as directed by the supplier.
(§6) Transfection of COS7: Cells in suspension are transfected, in the presence of 10% (V/V) fetal calf serum, with 150 ng of DNA per well with a pGal4-PPAR/Gal4(RE)_TkpGL3 ratio of 1/10. Cells are then seeded in 96 well plates (4×10^4 cells/well) and incubated for 24 hours at 37° C. Activation with compounds is performed on 24 hours at 37° C. in culture medium without serum. At the end of the activation period, cells are lysed and luciferase activity is determined, using the Steady Glow Luciferase Kit (Promega), according to the supplier's instructions.

[2] = system: Human normal primary fibroblasts; experiment: Antioxidant properties on cell cultures (carboxy-H2DCFDA fluorescence, AAPH stress), fibroblasts; type: cell-based; conditions: AAPH 750 μM; for antioxidant properties on cell cultures (in words): 25 μM for 24 h
Procedure: (§7) The reduction in the intensity of the emitted fluorescence signal was determined in cells treated with the compounds in the following manner.
(§8) Prior to stress the cells with an oxidative agent such as AAPH (CAS number 2997-92-4), cells are incubated with compounds of interest at 25 μM for 24 h. Then the culture medium is discarded and cells are rinsed two times with PBS. Cells are then incubated 30 min at 37° C. with a cell-permeant indicator for reactive oxygen species that is nonfluorescent until the acetate groups are removed by intracellular esterases and oxidation occurs within the cell 5-(and-6)-carboxy-2′,7′-dichlorodihydrofluorescein diacetate (carboxy-H2DCFDA). The probes are prepared in PBS and incubated at the final concentration of 25 μM. After the incubation with the probe, cells are rinsed and incubated another 30 min with the oxidative solution containing AAPH at 750 μM in culture medium without phenol red and serum.
(§9) The fluorescence is then measured with a fluorimeter with the following wavelength, […].
(§10) Two different cell types have been tested with the inventive compounds. Human normal primary fibroblasts and HaCat cells which are a human keratinocyte cell line.

HaCat cells = experiment: Antioxidant properties on cell cultures (carboxy-H2DCFDA fluorescence, AAPH stress), keratinocytes; type: cell-based, human; conditions: AAPH 750 μM; for antioxidant properties on cell cultures (in words): 25 μM for 24 h
Procedure: as §7, §8, §9, §10

human PPARα = target: T2, human PPARα (Homo sapiens, UniProt Q07869); experiment: PPARα/Gal4 transactivation system; type: cell-based; conditions: for concentration at which maximal activity is observed: PPAR/Gal4 transactivation system
T2 construct: expressed in transfected cells; host or cells: RK13 or COS-7
T2 sequence (Q07869 239-466 limits assumed): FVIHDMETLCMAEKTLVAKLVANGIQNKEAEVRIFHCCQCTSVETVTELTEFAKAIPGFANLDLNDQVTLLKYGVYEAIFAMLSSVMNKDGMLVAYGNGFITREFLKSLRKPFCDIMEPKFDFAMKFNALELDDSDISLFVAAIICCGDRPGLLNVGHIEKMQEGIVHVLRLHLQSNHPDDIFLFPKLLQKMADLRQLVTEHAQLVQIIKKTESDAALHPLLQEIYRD
Procedure: as §1, §2, §3, §4, §5, §6

LDL = experiment: Protection against LDL oxidation by copper (conjugated diene formation); type: biochemical; conditions: for lag phase of conjugated diene formation / rate of conjugated diene formation: 10^−4M
Procedure: LDL oxidation is an important alteration and plays a predominant role in the establishment and development of atherosclerosis (Jurgens G et al., 1987). […] Unless otherwise indicated, the reagents were from Sigma (St Quentin, France). LDL were prepared according to the method described by (Havel R J et al., 1955). The solutions of test compounds were prepared at 10^−2 M concentration in bicarbonate buffer (pH 9) and diluted in PBS to obtain final concentrations ranging from 0.1 to 100 μM for a total ethanol concentration of […]. Prior to oxidation, EDTA was removed from the LDL preparation by dialysis. Oxidation then took place at 30° C. by addition of 100 μl of 16.6 μM CuSO4 solution to 160 μL of LDL (125 μg protein/ml) and 20 μl of a test compound solution. The formation of dienes, the species under observation, was followed by measuring optical density at 234 nm in the samples treated with the compounds but in the presence or absence of copper. Optical density at 234 nm was measured every 10 minutes for 8 hours in a thermostated spectrophotometer (Tecan Ultra 380). The compounds were considered to have antioxidant activity when they induced a longer lag phase and reduced the rate of oxidation and the amount of dienes formed in comparison with the control sample.

human PPARδ = target: T3, human PPARδ (Homo sapiens, UniProt Q03181); experiment: PPARδ/Gal4 transactivation system; type: cell-based
T3 construct: expressed in transfected cells; host or cells: RK13 or COS-7
T3 sequence (Q03181 211-439 limits assumed): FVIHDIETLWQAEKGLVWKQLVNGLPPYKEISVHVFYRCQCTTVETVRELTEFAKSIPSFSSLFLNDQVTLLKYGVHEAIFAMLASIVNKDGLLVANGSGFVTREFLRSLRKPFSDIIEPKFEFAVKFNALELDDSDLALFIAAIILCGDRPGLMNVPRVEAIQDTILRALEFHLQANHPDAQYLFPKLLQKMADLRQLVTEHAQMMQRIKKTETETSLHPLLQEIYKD
Procedure: as §1, §2, §3, §4, §5
Transfection of COS7: Cells in suspension are transfected, in the presence of 10% (V/V) fetal calf serum, with 150 ng of DNA per well with a pGal4-PPAR/Gal4(RE)_TkpGL3 ratio of 1/10. […] At the end of the activation period, cells are lysed and luciferase activity is determined, using the Steady Glow Luciferase Kit (Promega), according to the supplier's instructions.

[3] = 50 mg/kg/day for 7 or 8 days, FIGS. 4-13, 4-15, 4-17, 4-19
[4] = 50 mg/kg/day for 7 or 8 days, FIGS. 4-14, 4-16, 4-18, 4-20
[5] = PPAR/Gal4 transactivation system

| Compound | antioxidant properties on cell cultures (in words) [2] | antioxidant properties on cell cultures (in words) (HaCat cells) | induction factor (luminescent signal relative to untreated cells) (human PPARα; 10 μM) | induction factor (luminescent signal relative to untreated cells) (human PPARα; 100 μM) | plasma cholesterol [1, 3] | plasma triglycerides [1, 4] | concentration at which maximal activity is observed (human PPARα) [µM] | activation of PPAR δ (in words) (human PPARδ) | activation of PPAR γ (in words) (human PPARγ; [5]) | other results |
| --- | --- | --- | --- | --- | --- | --- | --- | --- | --- | --- |
| CCCCCCOc1ccc(C(=O)/C=C/c2cc(C)c(OC(C)(C)C(=O)O)c(C)c2)cc1 [Compound 33, 1-[4-hexyloxyphenyl]-3-[3,5-dimethyl-4-carboxydimethylmethyloxyphenyl]prop-2-en-1-one] | antioxidant properties | antioxidant properties | 44 | 77 |  |  |  |  |  | cholesterol in lipoparticle subfraction (exclusion chromatography) ([1]; 50 mg/kg/day for 8 days): decrease; plasma cholesterol ([1]; 50 mg/kg/day for 8 days): decrease; plasma triglycerides ([1]; 50 mg/kg/day for 8 days): decrease; triglycerides in lipoparticle subfraction (exclusion chromatography) ([1]; 50 mg/kg/day for 8 days): decrease; maximum induction factor (human PPARγ; 100 μM): 45.6; induction factor (luminescent signal relative to untreated cells) (human PPARα; 1 μM): 22; lag phase of conjugated diene formation (LDL; FIG. 1-9, copper alone 80 minutes): 247 min; rate of conjugated diene formation (LDL; FIG. 1-10, copper alone 1.9): 0.8 nmol/min/mg of LDL; maximum amount of conjugated dienes formed (LDL; FIG. 1-11, copper alone 298): 257 nmol per mg of LDL |
| Cc1cc(/C=C/C(=O)c2ccc(C(F)(F)F)cc2)cc(C)c1OC(C)(C)C(=O)O [Compound 58, 1-[4-trifluoromethylphenyl]-3-[3,5-dimethyl-4-carboxydimethylmethyloxyphenyl]prop-2-en-1-one] | antioxidant properties | antioxidant properties |  |  | decrease | decrease | 0.3 | can activate |  | concentration at which maximal activity is observed (human PPARγ; [5]): 1 µM |
| Cc1cc(/C=C/C(=O)c2ccc(SC(F)(F)F)cc2)cc(C)c1OC(C)(C)C(=O)O [Compound 54, 1-[4-trifluoromethylthiophenyl]-3-[3,5-dimethyl-4-carboxydimethylmethyloxyphenyl]prop-2-en-1-one] | antioxidant properties | antioxidant properties |  |  | decrease | decrease | 0.03 | can activate | can activate |  |
| Cc1cc(/C=C/C(=O)c2ccc(Cl)cc2)cc(C)c1OC(C)(C)C(=O)O [Compound 17, 1-[4-chlorophenyl]-3-[3,5-dimethyl-4-carboxydimethylmethyloxyphenyl]prop-2-en-1-one] |  |  | 85 | 13.8 |  |  |  |  |  | cholesterol in lipoparticle subfraction (exclusion chromatography) ([1]; gavage 200 mg/kg for 7 days): decreased; plasma concentration of cholesterol ([1]; gavage 200 mg/kg for 7 days): decrease; plasma concentration of triglycerides ([1]; gavage 200 mg/kg for 7 days): decrease; triglycerides in lipoparticle subfraction (exclusion chromatography) ([1]; gavage 200 mg/kg for 7 days): decreased; maximum induction factor (human PPARγ; 10 μM): 25; lag phase of conjugated diene formation (LDL; FIG. 1-1, copper alone 111 minutes): 203 min; rate of conjugated diene formation (LDL; FIG. 1-2, copper alone 2): 1.7 nmol/min/mg of LDL |
| CCCOc1ccc(C(=O)/C=C/c2cc(C)c(OC(C)(C)C(=O)O)c(C)c2)cc1 [Compound 70, 1-[4-propyloxyphenyl]-3-[3,5-dimethyl-4-carboxydimethylmethyloxyphenyl]prop-2-en-1-one] |  |  |  |  | decrease | decrease | 0.03 | can also activate | can also activate | % of oxidative reduction versus control cells ([2]; compounds at 25 μM for 24 h): 53%; % of oxidative reduction versus control cells (HaCat cells; compounds at 25 μM for 24 h): 47% |
